Entries after “also recorded” stand apart in the source; their conditions may differ. Read-outs that look alike come from different tables or passages of the source.
Tests used:
[1] = in vivo, po, 50 mg/kg
Procedure: (§1) Female C57BL6 mice, 5-6 weeks of age, were purchased from NCl. Animal experimentation was conducted under an approved IACUC protocol and complied with local and national guidelines. All MBZ polymorphs and tablets were administered by oral gavage at a dose of 50 mg/kg. Elacridar was administered by oral gavage at 50 mg/kg 2 hours prior to the administration of MBZ-C. Mice (3 animals/time point) were first anesthetized via intraperitoneal injection of 60 μl of a stock solution containing ketamine hydrochloride (75 mg/kg) (100 mg/ml; Ketamine HCl; Abbot Laboratories, Chicago, Ill., USA) and xylazine (7.5 mg/kg) (100 mg/ml; Xyla-ject®, Phoenix Pharmaceutical, St. Joseph, Mo., USA) in a sterile 0.9% NaCl solution. Then the blood samples were taken by puncturing and aspiring from the left heart ventricle. Blood samples were mixed with 5 mM EDTA and centrifuged at 10000 g for 5 min to obtain the plasma for further analysis.
(§2) Blood, brain and brain tumor tissues were harvested as a function of time after MBZ administration. To compare the pharmacokinetics of MBZ polymorphs, three cohorts of mice each were administered a single dose of 50 mg/kg by oral gavage. For the initial comparison studies, plasma samples were obtained at 1, 2.5, 4, 6, 8, 15, and 24 hours after MBZ administration while brain tissue was only collected at 6 hours. For the comparison studies of polymorph C with or without ELD, plasma and brain tissue samples were obtained at 2.5, 4, and 8 hours after MBZ administration. Brain tumor tissue samples were also obtained for polymorph C alone.
(§3) MBZ and the two metabolites, 2-amino-5-benzoyl-benzimidazole (MBZ-NH2, CAS 52329-60-9) and rac dihydro mebendazole (MBZ-OH, CAS 60254-95-7), were quantified in plasma, brain and brain tumor tissue. Tissue homogenates were prepared at a concentration of 200 mg/ml in plasma prior to extraction. Mebendazole and metabolites were extracted from 50 μl of plasma or tissue homogenates with 0.1 ml of methanol containing 0.5 μg/ml of the internal standard A620223.69. After centrifugation, the supernatant (60 μl) was mixed with water (40 μl) and then transferred into autosampler vials. […] The analytes were monitored using an AB Sciex triple quadrapole™ 5500 mass-spectrometric detector (Applied Biosystems, Foster City, Calif., USA) using electrospray ionization operating in positive mode. The spectrometer was programmed to allow the [MH+] ions of MBZ, MBZ-NH2, MBZ-OH, and A620223.69 at m/z 296.0, 238.0, 298.0, and 287.2, respectively to pass through the first quadrupole (Q1) and into the collision cell (Q2). The daughter ions for MBZ (m/z 263.9), MBZ-NH2 (m/z 105.1), MBZ-OH (m/z 266.0), and A620223.69 (m/z 124.1) were monitored through the third quadrupole (Q3). Calibration curves for MBZ and metabolites were computed using the area ratio peak of the analysis to the internal standard by using a quadratic equation with a 1/x weighting function over the range of 5 to 500 ng/ml (MBZ) and 1 to 500 ng/ml (metabolites) with dilutions of up to 1:100 (v:v). If one or more concentrations were below limits of quantification, a value of ½ the limit of quantification was assigned for pharmacokinetic calculations. If two consecutive time points were below limits of quantification, the last one was excluded from the analysis.
Mean plasma and brain concentrations were calculated at each time point for both MBZ and its metabolites. 1.045 g/ml was used as the average wet rodent brain tissue density (16). Pharmacokinetic parameters were calculated from mean MBZ and its metabolites concentration-time data using noncompartmental methods as analyzed in Phoenix® WinNonlin® version 6.3 (Pharsight Corp., Mountain View, Calif.). Cmax and Tmax were the observed values from the mean concentration data. The AUClast was calculated using the log-linear trapezoidal method. λz was determined from the slope of the terminal phase of the concentration-time profile. The terminal half-life (T1/2) was determined by dividing 0.693 by λz. […]

GL261-luc glioma = conditions: for difference in survival (Mantel-Cox test): GL261-luc glioma-bearing mice, 100 mg/kg oral gavage from day 5; for survival of GL261 glioma-bearing mice: other benzimidazoles, even at higher doses than MBZ; for mean survival: GL261 model, MBZ polymorphs 50 mg/kg oral
Procedure: All animal studies were approved by the Animal Care and Use Committee (ACUC) of the Johns Hopkins University. The intracranial implantation of GL261-luc in the frontal lobe and D425 cells in the cerebellum of the mouse brain followed the procedure described before (3,4). […] MBZ and other benzimidazoles were prepared by either mixing the power with PBS and sesame oil (1:1, v:v) (Sigma) or by grinding the tablets to powder and resuspending in the aforementioned PBS/sesame oil mixture. Elacridar was prepared as a 10 mg/ml suspension in 0.5% hydroxypropylmethylcellulose and 0.5% Tween 80 in PBS similarly as described before (15).
Animal survival data were analyzed by GraphPad Prism 5.0. The p-values were determined by a Mantel-Cox test. A p-value under 0.05 was accepted as statistically significant.

GL261 glioma cells = assay: Cytotoxicity in cultured GL261 cells (colorimetric assay, 72 h); assay type: cell-based, mouse; conditions: for cytotoxicity in GL261 cells: in vitro
Procedure: Cells were incubated with the indicated drugs for 72 h and the living cells were measured by the colorimetric assay.
(3,14) GL261 and D425 cells were maintained in DMEM media supplemented with 10% fetal bovine serum and antibiotics at 37° C. in humidified air containing 5% CO2.

in vivo = conditions: for mean B/P ratio: 6 h
Procedure: as §1
For brain distribution studies, mice were perfused under anesthesia with 20 ml ice-cold saline supplemented with 20 μl of 0.02% heparin by injecting slowly into the left heart ventricle using a 20 gauge needle. The right atrium was cut open before to allow the blood outflow. The yellow color of kidney indicated a good perfusion quality that was essential to deplete blood from the brain tissue. In GL261 tumor-bearing mice, GL261 tumor was distinguished from the normal brain by easily recognizable differences in color and shade. GL261 tumor was separated with a scalpel and the normal brain tissue was cut from the contralateral hemisphere. All brain samples were weighed and stored at −80° C. before processing.
as §2
as §3, with “calculations.” for “calculations. If two consecutive time points were below limits of quantification, the last one was excluded from the analysis.”

D425 medulloblastoma = assay: Orthotopic D425 medulloblastoma xenograft model (survival); assay type: in vivo, mouse; conditions: D425 model, elacridar alone; marginal
Procedure: The intracranial implantation of GL261-luc in the frontal lobe and D425 cells in the cerebellum of the mouse brain followed the procedure described before (3,4). Five days after tumor implantation, mice were gavaged with MBZ or the other benzimidazoles at 50 mg/kg five days a week. MBZ and other benzimidazoles were prepared by either mixing the power with PBS and sesame oil (1:1, v:v) (Sigma) or by grinding the tablets to powder and resuspending in the aforementioned PBS/sesame oil mixture. Elacridar was prepared as a 10 mg/ml suspension in 0.5% hydroxypropylmethylcellulose and 0.5% Tween 80 in PBS similarly as described before (15).

[2] = female, C57BL6, mouse, po, 50 mg/kg

COC(=O)Nc1nc2ccc(C(O)c3ccccc3)cc2[nH]1 (racemic) [MBZ-OH, rac dihydro mebendazole]
plasma AUC0-24 h of metabolite ([1]; mouse): 5,781 h*ng/ml

COC(=O)Nc1nc2ccc(Sc3ccccc3)cc2[nH]1 [fenbendazole]
difference in survival (Mantel-Cox test) (GL261-luc glioma): not significant
survival of GL261 glioma-bearing mice (GL261-luc glioma): failed or only marginally improved the survival

COC(=O)Nc1nc2cc([S+]([O-])c3ccccc3)ccc2[nH]1 (stereo not drawn) [oxifendazole]
difference in survival (Mantel-Cox test) (GL261-luc glioma): not significant
survival of GL261 glioma-bearing mice (GL261-luc glioma): failed or only marginally improved the survival

c1ccc2[nH]c(-c3cscn3)nc2c1 [thiabendazole, Thiabendazole]
difference in survival (Mantel-Cox test) (GL261-luc glioma): not significant
survival of GL261 glioma-bearing mice (GL261-luc glioma): failed or only marginally improved the survival

COC(=O)Nc1nc2cc(C(=O)c3ccc(F)cc3)ccc2[nH]1 [flubendazole]
difference in survival (Mantel-Cox test) (GL261-luc glioma): not significant
survival of GL261 glioma-bearing mice (GL261-luc glioma): failed or only marginally improved the survival

Nc1nc2ccc(C(=O)c3ccccc3)cc2[nH]1 [MBZ-NH2, 2-amino-5-benzoyl-benzimidazole]
cytotoxicity in GL261 cells (GL261 glioma cells): only a marginal cytotoxicity; also recorded: least cytotoxic
plasma AUC0-24 h of metabolite ([1]; female, C57BL6, mouse): 10,516 h*ng/ml
B/P ratio of MBZ-NH2 (in vivo; female, C57BL6, mouse): 0.12
elevation of B/P ratio by co-administration of elacridar (in vivo; female, C57BL6, mouse): 2.5 folds
distribution in GL261 brain tumor vs contralateral normal brain tissue (in vivo; [2]): preferentially accumulated in the GL261 brain tumor
elevation of AUC0-8 h by co-administration of elacridar (in vivo; mouse): 2.4 folds
brain levels of metabolite in terms of Cmax and AUC0-24 h (in vivo; mouse, po, 50 mg/kg): much lower levels than MBZ-OH
distribution in GL261 brain tumor vs contralateral normal brain tissue (in vivo; mouse, po, 50 mg/kg): significantly higher levels than in the contralateral brain

CCCSc1ccc2nc(NC(=O)OC)[nH]c2c1 [albendazole]
survival of GL261 glioma-bearing mice (GL261-luc glioma): failed or only marginally improved the survival

COC(=O)Nc1nc2ccc(C(=O)c3ccccc3)cc2[nH]1 [MBZ-C, Mebendazole]
cytotoxicity in GL261 cells (GL261 glioma cells): equal cytotoxicity
plasma AUC0-24 h ([1]; female, C57BL6, mouse): 16,039 h*ng/ml
Kp (in vivo; female, C57BL6, mouse, AUC0-24h B/P ratio): 0.82
brain Cmax, equivalent concentration (in vivo; female, C57BL6, mouse, po): 7.1 µM
peak brain concentration (in vivo; [2]): 2,016 ng/g
Kp at 8 h (in vivo; female, C57BL6, mouse, po, 50 mg/kg, brain/plasma (B/P) ratio on average): 0.75
change of brain concentration of MBZ in terms of AUC0-8h (in vivo; mouse, po, 50 mg/kg): did not significantly change
time of peak brain concentration after oral administration (in vivo; mouse, po, 50 mg/kg): Four
mean survival (GL261-luc glioma): 48.5 days
efficacy in GL261 glioma model (GL261-luc glioma; oral gavage 50 mg/kg, from day 5 after implantation, 50 mg/kg): best efficacy

COc1cc2c(cc1OC)CN(CCc1ccc(NC(=O)c3cccc4c(=O)c5cccc(OC)c5[nH]c34)cc1)CC2 [elacridar]
IC50 (GL261 glioma cells; GL261 mouse glioma cells): 5.8 µM
survival benefit (D425 medulloblastoma): 9 days
median survival (GL261-luc glioma; GL261, single agent 50 mg/kg, control 29.5 days): 34 days

COC(=O)Nc1nc2ccc(C(=O)c3ccccc3)cc2[nH]1 [MBZ-B, Mebendazole]
cytotoxicity in GL261 cells (GL261 glioma cells): equal cytotoxicity
plasma AUC0-24 h ([1]; female, C57BL6, mouse): 26,474 h*ng/ml
plasma AUC0-24 h relative to MBZ-C ([1]; female, C57BL6, mouse): 165%
mean B/P ratio (in vivo; [2]): 0.64
toxicity in GL261 glioma-bearing mice (GL261-luc glioma; 50 mg/kg oral): presumably died from drug toxicity
treatment-related death among 6 treated mice (GL261-luc glioma; GL261 glioma-bearing mice, 50 mg/kg oral): 1
mean survival (GL261-luc glioma): 45 days

COC(=O)Nc1nc2ccc(C(=O)c3ccccc3)cc2[nH]1 [MBZ-A, Mebendazole]
cytotoxicity in GL261 cells (GL261 glioma cells): equal cytotoxicity
plasma AUC0-24 h ([1]; female, C57BL6, mouse): 3,052 h*ng/ml
plasma AUC0-24 h relative to MBZ-C ([1]; female, C57BL6, mouse): 19%
mean B/P ratio (in vivo; [2]): 0.32

Source: US11110079B2, “Mebendazole polymorph for treatment and prevention of tumors” (THE JOHNS HOPKINS UNIVERSITY, priority 2015, dated 2021)
